Experimental data reported in patent US20150344540A1, “NOVEL GLP-1 RECEPTOR AGONISTS WITH CHOLESTEROL EFFLUX ACTIVITY” (NOVO NORDISK A/S, priority 2012, published 2015).
Where two headings read alike, the source gives them in different places. Where a SMILES comes first, the peptide text is derived from it. [ ]: non-standard residue; d: D form. Aib = CC(C)(N)C(=O)O

Columns and labels:
[1] = test system: Mouse monocyte/macrophage cell line, RAW 264.7; assay: Cholesterol efflux assay (3H-cholesterol, macrophage cell line); assay type: cell-based; conditions: RAW 264.7, 4 hrs incubation, 0.1% human serum albumin; for 4 h Cholesterol Efflux Emax: ABCA1-mediated efflux
human GLP-1 receptor = human GLP-1 receptor (Homo sapiens, UniProt P43220); assay: Functional GLP-1 receptor assay, in vitro potency (CRE luciferase; whole cells); assay type: cell-based; conditions: BHK cells expressing human GLP-1 receptor
Chain of human GLP-1 receptor (P43220 24-463): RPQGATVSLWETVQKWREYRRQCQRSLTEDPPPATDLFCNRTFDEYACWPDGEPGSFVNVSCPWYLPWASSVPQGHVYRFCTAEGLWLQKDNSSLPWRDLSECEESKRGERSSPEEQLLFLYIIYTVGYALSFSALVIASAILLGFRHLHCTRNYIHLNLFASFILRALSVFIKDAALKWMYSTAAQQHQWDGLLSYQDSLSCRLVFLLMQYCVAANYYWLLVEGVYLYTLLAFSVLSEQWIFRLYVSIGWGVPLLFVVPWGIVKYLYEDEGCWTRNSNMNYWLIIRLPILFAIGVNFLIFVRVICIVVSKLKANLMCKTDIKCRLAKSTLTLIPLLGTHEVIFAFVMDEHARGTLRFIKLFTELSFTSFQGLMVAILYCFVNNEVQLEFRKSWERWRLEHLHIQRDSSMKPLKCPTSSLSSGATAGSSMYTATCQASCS

[2] = Pharmacokinetics in mini-pigs after i.v. administration; conditions: female, Göttingen, minipig, iv, 5 nmol/kg
Text: The aim of the study is to assess the pharmacokinetic properties of the compounds of the invention, in mini-pigs.
Göttingen mini-pigs female, 15-20 kg, purchased from Ellegaard Mini-pigs, Denmark, were housed in the Animal Unit, Novo Nordisk A/S and were kept and handled according to normal procedure in the Animal Unit. After minimum 2 weeks of acclimatization two permanent central venous catheters were implemented in vena cava caudalis in each animal. After surgery the animals were in their normal individual pens during the pharmacokinetic experiments.
Intravenous injections were given through the central short catheter, which was flushed with min 10 ml of sterile saline post administration. The test substance was dosed at 5 nmol/kg, N=3, in a volume of 0.05 ml/kg.
On day 1 the catheters are coupled to extension tubes, which will be removed at the end of day 1.
Samples were kept on wet ice until centrifugation (10 min, 4° C., 1942 g). Afterwards, plasma (min. 100 μl) was transferred immediately to Micronic tubes and kept at −20° C. until analysis. The plasma samples were analysed by an immunoaasay described below.
The plasma concentrations of the peptides with intact N-terminus were determined using a Luminescence Oxygen Chanelling Immuno-assay (LOCI). The donor beads were coated with streptavidin, while acceptor beads were conjugated with a monoclonal antibody recognizing a mid-/C-terminal epitope of the peptide. The other monoclonal antibody, specific for the N-terminus, was biotinylated. The three reactants were combined with the analyte and formed a two-sited immuno-complex. Illumination of the complex released singlet oxygen atoms from the donor beads, which were channeled into the acceptor beads and triggered chemi-luminescence which was measured in an Envision plate reader. The amount of light was proportional to the concentration of the compound.
Plasma concentration-time profiles was analysed by a non-compartmental pharmacokinetics analysis using Phoenix (Pharsight Inc., Mountain View, Calif., USA). Calculations were performed using individual concentration-time values from each animal.

[3] = GLP1R CRE luc 1% HSA EC50 Mean Value, 1% HSA
[4] = 0% HSA, read-out: GLP1R CRE luc 0% HSA EC50 Mean Value
[5] = plasma, T1/2 Mean Value, Göttingen mini-pigs, N=3

Row | Structure (SMILES) | 4 h Cholesterol Efflux Emax [1] [%] | EC50 ([1]; read-out: 4 h Cholesterol Efflux EC50, ABCA1-mediated efflux (CPT-cAMP induced minus non-induced)) [nM] | EC50 (human GLP-1 receptor; GLP1R CRE luc 0% HSA EC50 Mean Value, 0% HSA) [nM] | EC50 (human GLP-1 receptor; [3]) [nM] | C0 ([2]; in vivo) [nM] | Vd ([2]; in vivo) [L/kg] | clearance ([2]; in vivo) [mL/h/kg] | half-life ([2]; in vivo) [min] | EC50 (human GLP-1 receptor; [4]) [nM] | C0 ([2]; plasma) [nM] | Vd ([2]; plasma) [L/kg] | clearance ([2]; plasma) [mL/h/kg] | half-life [2, 5] [min] | half-life ([2]; plasma, T1/2, mini-pigs) [min]
1 | CC(C)C[C@H](NC(=O)[C@H](Cc1ccccc1)NC(=O)[C@H](CCC(=O)O)NC(=O)[C@H](CCCCN)NC(=O)C(C)(C)NC(=O)[C@H](CCCCN)NC(=O)[C@H](CCC(=O)O)NC(=O)[C@H](CC(C)C)NC(=O)[C@H](CC(C)C)NC(=O)[C@H](Cc1c[nH]c2ccccc12)NC(=O)[C@H](CCC(N)=O)NC(=O)[C@@H](NC(=O)[C@H](Cc1ccccc1)NC(=O)[C@H](CCC(=O)O)NC(=O)[C@H](CCCNC(=N)N)NC(=O)[C@H](C)NC(=O)[C@H](C)NC(=O)[C@H](CCCCN)NC(=O)[C@H](CO)NC(=O)[C@H](CC(=O)O)NC(=O)[C@H](CC(C)C)NC(=O)[C@H](Cc1ccc(O)cc1)NC(=O)[C@H](CCCCN)NC(=O)[C@H](CO)NC(=O)[C@H](Cc1ccc(O)cc1)NC(=O)[C@H](CC(=O)O)NC(=O)[C@H](CO)NC(=O)[C@@H](NC(=O)[C@H](Cc1ccccc1)NC(=O)[C@@H](NC(=O)CNC(=O)[C@H](CCC(N)=O)NC(=O)C(C)(C)NC(=O)[C@@H](N)Cc1c[nH]cn1)[C@@H](C)O)[C@@H](C)O)C(C)C)C(N)=O [Compound 26] (H-H[Aib]QGTFTSDYSKYLDSKAAREFVQWLLEK[Aib]KEFL-NH2) | 87 | 200 | 0.393 | 0.153 | 123 | 0.0549 | 5.21 | 438 |  |  |  |  |  | 
2 | CC[C@H](C)[C@H](NC(=O)[C@H](Cc1ccccc1)NC(=O)[C@H](CCC(=O)O)NC(=O)[C@H](CCCCN)NC(=O)[C@H](C)NC(=O)[C@H](C)NC(=O)[C@H](CCC(N)=O)NC(=O)CNC(=O)[C@H](CCC(=O)O)NC(=O)[C@H](CC(C)C)NC(=O)[C@H](Cc1ccc(O)cc1)NC(=O)[C@H](CO)NC(=O)[C@H](CO)NC(=O)[C@@H](NC(=O)[C@H](CC(=O)O)NC(=O)[C@H](CO)NC(=O)[C@@H](NC(=O)[C@H](Cc1ccccc1)NC(=O)[C@@H](NC(=O)CNC(=O)[C@H](CCC(=O)O)NC(=O)C(C)(C)NC(=O)[C@@H](N)Cc1c[nH]cn1)[C@@H](C)O)[C@@H](C)O)C(C)C)C(=O)N[C@@H](C)C(=O)N[C@@H](Cc1c[nH]c2ccccc12)C(=O)N[C@@H](CC(C)C)C(=O)N[C@H](C(=O)N[C@@H](CCCCN)C(=O)N[C@@H](CCCCN)C(=O)NC(C)(C)C(=O)NCC(=O)N[C@@H](CCC(=O)O)C(=O)N[C@@H](Cc1ccccc1)C(=O)N[C@@H](CC(C)C)C(N)=O)C(C)C [Compound 48] | 71 |  |  | 0.015 |  |  |  |  | 0.045 | 85.5 | 0.0743 | 6.3 | 498 | 
3 | CC[C@H](C)[C@H](NC(=O)[C@H](Cc1ccccc1)NC(=O)[C@H](CCC(=O)O)NC(=O)[C@H](CCCCN)NC(=O)[C@@H](NC(=O)[C@H](C)NC(=O)[C@H](CCC(=O)O)NC(=O)CNC(=O)[C@H](CCC(=O)O)NC(=O)[C@H](CC(C)C)NC(=O)[C@H](Cc1ccc(O)cc1)NC(=O)[C@H](CO)NC(=O)[C@H](CO)NC(=O)[C@@H](NC(=O)[C@H](CC(=O)O)NC(=O)[C@H](CO)NC(=O)[C@@H](NC(=O)[C@H](Cc1ccccc1)NC(=O)[C@@H](NC(=O)CNC(=O)[C@H](CCC(=O)O)NC(=O)C(C)(C)NC(=O)[C@@H](N)Cc1c[nH]cn1)[C@@H](C)O)[C@@H](C)O)C(C)C)C(C)C)C(=O)N[C@@H](C)C(=O)N[C@@H](Cc1c[nH]c2ccccc12)C(=O)N[C@@H](CC(C)C)C(=O)N[C@H](C(=O)N[C@@H](CCC(=O)O)C(=O)N[C@@H](CCCCN)C(=O)NC(C)(C)C(=O)N[C@@H](CCCCN)C(=O)N[C@@H](CCC(=O)O)C(=O)N[C@@H](Cc1ccccc1)C(N)=O)C(C)C [Compound 62, [Aib8,Glu23,Val25,Glu34,Lys35,Aib36,Lys37]-GLP-1-(7-37)-peptidyl-Glu-Phe amide] (H-H[Aib]EGTFTSDVSSYLEGEAVKEFIAWLVEK[Aib]KEF-NH2) | 111 |  |  | 0.015 |  |  |  |  | 0.022 | 50.6 | 0.0654 | 2.66 | 1000 | 
4 | CC[C@H](C)[C@H](NC(=O)[C@H](Cc1ccccc1)NC(=O)[C@H](CCC(=O)O)NC(=O)[C@H](CCCCN)NC(=O)[C@@H](NC(=O)[C@H](C)NC(=O)[C@H](CCC(=O)O)NC(=O)CNC(=O)[C@H](CCC(=O)O)NC(=O)[C@H](CC(C)C)NC(=O)[C@H](Cc1ccc(O)cc1)NC(=O)[C@H](CO)NC(=O)[C@H](CO)NC(=O)[C@@H](NC(=O)[C@H](CC(=O)O)NC(=O)[C@H](CO)NC(=O)[C@@H](NC(=O)[C@H](Cc1ccccc1)NC(=O)[C@@H](NC(=O)CNC(=O)[C@H](CCC(=O)O)NC(=O)C(C)(C)NC(=O)[C@@H](N)Cc1c[nH]cn1)[C@@H](C)O)[C@@H](C)O)C(C)C)C(C)C)C(=O)N[C@@H](C)C(=O)N[C@@H](Cc1c[nH]c2ccccc12)C(=O)N[C@@H](CC(C)C)C(=O)N[C@H](C(=O)N[C@@H](CCC(=O)O)C(=O)N[C@@H](CCCCN)C(=O)NC(C)(C)C(=O)N[C@@H](CCCCN)C(=O)N[C@@H](CCC(=O)O)C(=O)N[C@@H](Cc1ccccc1)C(=O)N[C@@H](CC(C)C)C(=O)N[C@@H](CCC(=O)O)C(=O)N[C@@H](CCCCN)C(=O)N[C@H](C(N)=O)C(C)C)C(C)C [Compound 54, [Aib8,Glu23,Val25,Glu34,Lys35,Aib36,Lys37]-GLP-1-(7-37)-peptidyl-Glu-Phe-Leu-Glu-Lys-Val amide] | 121 |  |  |  |  |  |  |  |  | 136 | 0.0802 | 1.31 | 2440 | 
5 | CC[C@H](C)[C@H](NC(=O)[C@H](Cc1ccccc1)NC(=O)[C@H](CCC(=O)O)NC(=O)[C@H](CCCCN)NC(=O)[C@@H](NC(=O)[C@H](C)NC(=O)[C@H](CCC(N)=O)NC(=O)CNC(=O)[C@H](CCC(=O)O)NC(=O)[C@H](CC(C)C)NC(=O)[C@H](Cc1ccc(O)cc1)NC(=O)[C@H](CO)NC(=O)[C@H](CO)NC(=O)[C@@H](NC(=O)[C@H](CC(=O)O)NC(=O)[C@H](CO)NC(=O)[C@@H](NC(=O)[C@H](Cc1ccccc1)NC(=O)[C@@H](NC(=O)CNC(=O)[C@H](CCC(=O)O)NC(=O)C(C)(C)NC(=O)[C@@H](N)Cc1c[nH]cn1)[C@@H](C)O)[C@@H](C)O)C(C)C)C(C)C)C(=O)N[C@@H](C)C(=O)N[C@@H](Cc1c[nH]c2ccccc12)C(=O)N[C@@H](CC(C)C)C(=O)N[C@H](C(=O)N[C@@H](CCC(=O)O)C(=O)N[C@@H](CCCCN)C(=O)NC(C)(C)C(=O)N[C@@H](CCCCN)C(=O)N[C@@H](CCC(=O)O)C(=O)N[C@@H](Cc1ccccc1)C(=O)N[C@@H](CC(C)C)C(N)=O)C(C)C [Compound 7] (H-H[Aib]EGTFTSDVSSYLEGQAVKEFIAWLVEK[Aib]KEFL-NH2) | 90 |  |  |  |  |  |  |  |  | 51.2 | 0.146 | 3.71 | 1640 | 1640
6 | CC[C@H](C)[C@H](NC(=O)[C@H](Cc1ccccc1)NC(=O)[C@H](CCC(=O)O)NC(=O)[C@H](CCCCN)NC(=O)[C@@H](NC(=O)[C@H](C)NC(=O)[C@H](CCC(=O)O)NC(=O)CNC(=O)[C@H](CCC(=O)O)NC(=O)[C@H](CC(C)C)NC(=O)[C@H](Cc1ccc(O)cc1)NC(=O)[C@H](CO)NC(=O)[C@H](CO)NC(=O)[C@@H](NC(=O)[C@H](CC(=O)O)NC(=O)[C@H](CO)NC(=O)[C@@H](NC(=O)[C@H](Cc1ccccc1)NC(=O)[C@@H](NC(=O)CNC(=O)[C@H](CCC(=O)O)NC(=O)C(C)(C)NC(=O)[C@@H](N)Cc1c[nH]cn1)[C@@H](C)O)[C@@H](C)O)C(C)C)C(C)C)C(=O)N[C@@H](C)C(=O)N[C@@H](Cc1c[nH]c2ccccc12)C(=O)N[C@@H](CC(C)C)C(=O)N[C@H](C(=O)N[C@@H](CCC(=O)O)C(=O)N[C@@H](CCCCN)C(=O)N[C@H](C(=O)N[C@@H](CCCCN)C(=O)N[C@@H](CCC(=O)O)C(=O)N[C@@H](Cc1ccccc1)C(=O)N[C@@H](CC(C)C)C(N)=O)C(C)C)C(C)C [Compound 6, [Aib8,Glu23,Val25,Glu34,Lys35,Val36,Lys37]-GLP-1-(7-37)-peptidyl-Glu-Phe-Leu amide] (H-H[Aib]EGTFTSDVSSYLEGEAVKEFIAWLVEKVKEFL-NH2) | 92 |  |  |  |  |  |  |  |  | 89.5 | 0.0904 | 1.64 | 2320 | 2320
